This is an account of results in patent publication US9951128B2, “Caninized anti-NGF antibodies and methods thereof” (ZOETIS SERVICES LLC, priority 2012, dated 2018).

A short description of this series: Mean group body weight in the rat MIA study. The class given is in vivo, Rat Ola Wistar. The conditions noted are these: morphine 10 mg/kg SC, mAbs 8 mg/kg SC. An excerpt:
Mean group body weight for all groups (g).

Regarding `CN1CC[C@]23c4c5ccc(O)c4O[C@H]2[C@@H](O)C=C[C@H]3[C@H]1C5` [Morphine], the “Mean group body weight, Baseline” value is on record as 178.5 g; the “Mean group body weight, Day 7” value was 256.2 g; the “Mean group body weight, Day 14” value is reported as 285.1 g; the “Mean group body weight, Day 21” value worked out at 300.6 g. Besides, the “Mean group body weight, Day 27” value stood at 316 g.
